Reference: US12263248B2, “Compounds and compositions for intracellular delivery of therapeutic agents” (ModernaTX, Inc., priority 2018, dated 2025)

What was measured:
[1] = Clinical chemistry and hematology in rat, 2 mpk i.v., 48 h; assay type: in vivo; conditions: intravenous, 48 h post dose
Experimental: Sample formulations of nanoparticle compositions including different lipids were administered intravenously to rat at a dose of 2 mpk. The expression of various clinical markers was evaluated at 48 h post dose and compared to that induced by administration of MC3 formulations or phosphate buffered saline (PBS).

hEPO mRNA = experiment: hEPO expression and cytokine induction after intravenous administration to mice; assay type: in vivo; conditions: for hEPO expression and average total flux compared with MC3: Table 12 comparison, in words; for hEPO concentrations compared with MC3 formulations / hEPO expression 3 h / Average hEPO concentration (pg/ml, 6 h) / Cytokine expression IL-6 (6 h) / Cytokine expression IP-10 (6 h) / hEPO expression 6 h / Fold increase in hEPO concentration relative to MC3 / hEPO expression 24 h: mice, 0.5 mpk; for hEPO concentrations compared with MC3 formulations: i.v., 3, 6 and 24 hours; for hEPO expression 3 h / Average hEPO concentration (pg/ml, 6 h) / Cytokine expression IL-6 (6 h) / Cytokine expression IP-10 (6 h) / hEPO expression 6 h / Fold increase in hEPO concentration relative to MC3 / hEPO expression 24 h: intravenous; for Average hEPO concentration (pg/ml, 6 h) / Cytokine expression IL-6 (6 h) / Cytokine expression IP-10 (6 h) / hEPO expression 6 h / Fold increase in hEPO concentration relative to MC3: 6 h; for Fold increase in hEPO concentration relative to MC3: Table 12
Experimental: The expression of hEPO and cytokine induction in mice intravenously administered a nanoparticle composition at a dose of 0.5 mpk were measured at 3, 6, and 24 hours. […] The expression of hEPO in mice intramuscularly administered a nanoparticle composition from Table 1B at a dose of 0.01 mpk were measured at 3, 6, and 24 hours.
Blood collection and analysis for hEPO. Blood was collected from mice or rats via the tail vein and hEPO concentrations were determined using a hEPO ELISA assay.

[2] = Nanoparticle characterisation: particle size, polydispersity index, zeta potential; assay type: physicochemical; conditions: nanoparticle composition with hEPO mRNA (Table 30)
From the text: Nanoparticle compositions may be characterized by a variety of methods. For example, microscopy (e.g., transmission electron microscopy or scanning electron microscopy) may be used to examine the morphology and size distribution of a nanoparticle composition. Dynamic light scattering or potentiometry (e.g., potentiometric titrations) may be used to measure zeta potentials. Dynamic light scattering may also be utilized to determine particle sizes. Instruments such as the Zetasizer Nano ZS (Malvern Instruments Ltd, Malvern, Worcestershire, UK) may also be used to measure multiple characteristics of a nanoparticle composition, such as particle size, polydispersity index, and zeta potential.
The mean size of a nanoparticle composition may be between 10s of nm and 100s of nm, e.g., measured by dynamic light scattering (DLS). For example, the mean size may be from about 40 nm to about 150 nm, such as about 40 nm, 45 nm, 50 nm, 55 nm, 60 nm, 65 nm, 70 nm, 75 nm, 80 nm, 85 nm, 90 nm, 95 nm, 100 nm, 105 nm, 110 nm, 115 nm, 120 nm, 125 nm, 130 nm, 135 nm, 140 nm, 145 nm, or 150 nm. In some embodiments, the mean size of a nanoparticle composition may be from about 50 nm to about 100 nm, from about 50 nm to about 90 nm, from about 50 nm to about 80 nm, from about 50 nm to about 70 nm, from about 50 nm to about 60 nm, from about 60 nm to about 100 nm, from about 60 nm to about 90 nm, from about 60 nm to about 80 nm, from about 60 nm to about 70 nm, from about 70 nm to about 150 nm, from about 70 nm to about 130 nm, from about 70 nm to about 100 nm, from about 70 nm to about 90 nm, from about 70 nm to about 80 nm, from about 80 nm to about 150 nm, from about 80 nm to about 130 nm, from about 80 nm to about 100 nm, from about 80 nm to about 90 nm, from about 90 nm to about 150 nm, from about 90 nm to about 130 nm, or from about 90 nm to about 100 nm. In certain embodiments, the mean size of a nanoparticle composition may from about 70 nm to about 130 nm or be from about 70 nm to about 100 nm. In a particular embodiment, the mean size may be about 80 nm. In other embodiments, the mean size may be about 100 nm. In other embodiments, the mean size may be about 120 nm.
A nanoparticle composition may be relatively homogenous. A polydispersity index may be used to indicate the homogeneity of a nanoparticle composition, e.g., the particle size distribution of the nanoparticle compositions. A small (e.g., less than 0.3) polydispersity index generally indicates a narrow particle size distribution. A nanoparticle composition may have a polydispersity index from about 0 to about 0.25, such as 0.01, 0.02, 0.03, 0.04, 0.05, 0.06, 0.07, 0.08, 0.09, 0.10, 0.11, 0.12, 0.13, 0.14, 0.15, 0.16, 0.17, 0.18, 0.19, 0.20, 0.21, 0.22, 0.23, 0.24, or 0.25. In some embodiments, the polydispersity index of a nanoparticle composition may be from about 0.10 to about 0.20.
The zeta potential of a nanoparticle composition may be used to indicate the electrokinetic potential of the composition. For example, the zeta potential may describe the surface charge of a nanoparticle composition. Nanoparticle compositions with relatively low charges, positive or negative, are generally desirable, as more highly charged species may interact undesirably with cells, tissues, and other elements in the body. In some embodiments, the zeta potential of a nanoparticle composition may be from about −10 mV to about +20 mV, from about −10 mV to about +15 mV, from about −10 mV to about +10 mV, from about −10 mV to about +5 mV, from about −10 mV to about 0 mV, from about −10 mV to about −5 mV, from about −5 mV to about +20 mV, from about −5 mV to about +15 mV, from about −5 mV to about +10 mV, from about −5 mV to about +5 mV, from about −5 mV to about 0 mV, from about 0 mV to about +20 mV, from about 0 mV to about +15 mV, from about 0 mV to about +10 mV, from about 0 mV to about +5 mV, from about +5 mV to about +20 mV, from about +5 mV to about +15 mV, or from about +5 mV to about +10 mV.

Compound | Concentration Alanine aminotransferase [1] | Concentration Aspartate aminotransferase [1] | Concentration Lymphocytes [1] | Concentration Monocytes [1] | Concentration Neutrophils [1] | hEPO expression and average total flux compared with MC3 (hEPO mRNA) | hEPO concentrations compared with MC3 formulations (hEPO mRNA) | hEPO expression 3 h (hEPO mRNA) | Average hEPO concentration (pg/ml, 6 h) (hEPO mRNA) | Cytokine expression IL-6 (6 h) (hEPO mRNA) | Cytokine expression IP-10 (6 h) (hEPO mRNA) | hEPO expression 6 h (hEPO mRNA) | Fold increase in hEPO concentration relative to MC3 (hEPO mRNA) | hEPO expression 24 h (hEPO mRNA) | Osmolality [2] | Zeta potential [2] | pH [2]
CCCCCCCCCN(CCO)CCCCCCCC(=O)OC(CCCCCCCC)CCCCCCCC [Compound 3, Heptadecan-9-yl 8-((2-hydroxyethyl)(nonyl)amino)octanoate] | 53.5 | 87.5 | 12051 | 2103 | 3388.5 |  |  |  |  |  |  |  |  |  |  |  | 
CCCCC/C=C\C/C=C\CCCCCCCCN(CCO)CCCCCCCC(=O)OC(CCCCCCCC)CCCCCCCC [Compound 6, Heptadecan-9-yl 8-((2-hydroxyethyl)((9Z,12Z)-octadeca-9,12-dien-1-yl)amino)octanoate] |  |  |  |  |  | outperform MC3 | higher hEPO concentrations than MC3 formulations | 2.31e+06 pg/mL | 3.17e+06 pg/mL | 10.15 pg/mL | 116.66 pg/mL | 3.17e+06 pg/mL | 1.73 | 1.11e+06 pg/mL |  |  | 
CCCCCCCCCOC(=O)CCCCCCCN(CCO)CCCCCCCC(=O)OC(CCCCCCCC)CCCCCCCC [Compound 18, Heptadecan-9-yl 8-((2-hydroxyethyl)(8-(nonyloxy)-8-oxooctyl)amino)octanoate] |  |  |  |  |  | outperform MC3 | higher hEPO concentrations than MC3 formulations | 3e+06 pg/mL | 3.38e+06 pg/mL | 10.16 pg/mL | 299.93 pg/mL | 3.38e+06 pg/mL | 1.85 | 1.8e+06 pg/mL | 312 mOsm/kg | −3.53 mV | 7.64
CCCCCC/C=C\COC(=O)CCCCCCCN(CCO)CCCCCCCC(=O)OC(CCCCCCCC)CCCCCCCC [Compound 24, Heptadecan-9-yl (Z)-8_((2-hydroxyethyl) (8-(non-2-en-1-yloxy)-8-oxooctyl)amino)octanoate] | 51.5 | 90 | 14100 | 1834 | 1790.5 |  |  |  |  |  |  |  |  |  |  |  | 
CCCCCCCCCCCOC(=O)CCCCCN(CCO)CCCCCCCC(=O)OC(CCCCCCCC)CCCCCCCC [Compound 25, Heptadecan-9-yl 8-((2-hydroxyethyl)(6-oxo-6-(undecyloxy)hexyl)amino)octanoate] | 52 | 124.5 | 15924 | 2122 | 1998 |  |  |  |  |  |  |  |  |  | 304 mOsm/kg | −3.88 mV | 7.60
CCCCCCCCCOC(=O)CCCN(CCO)CCCCCCCC(=O)OC(CCCCCCCC)CCCCCCCC [Compound 26, Heptadecan-9-yl 8-((2-hydroxyethyl)(4-(nonyloxy)-4-oxobutyl)amino) octanoate] |  |  |  |  |  |  |  |  |  |  |  |  |  |  | 305 mOsm/kg | −3.73 mV | 7.54
CCCCCCCCCOC(=O)CCCCCCCN(CCO)CCCCCCCOC(=O)C(CCCCCCCC)CCCCCCCC [Compound 30, 7-((2-Hydroxyethyl)(8-(nonyloxy)-8-oxooctyl)amino)heptyl 2-octyldecanoate] | 56 | 95 | 10408.5 | 877 | 3195 |  |  |  |  |  |  |  |  |  |  |  | 
CCCCCCCCC(C)OC(=O)CCCCCCCN(CCO)CCCCCCCC(=O)OC(CCCCCCCC)CCCCCCCC (centres unmarked) [Compound 48, decan-2-yl 8-((8-(heptadecan-9-yloxy)-8-oxooctyl)(2-hydroxyethyl)amino)octanoate] |  |  |  |  |  |  |  |  |  |  |  |  |  |  | 311 mOsm/kg | −3.61 mV | 7.58
CCCCC/C=C\C/C=C\CCCCCCCCC(CCCCCCCC/C=C\C/C=C\CCCCC)OC(=O)CCCN(C)C [MC3, DLin-MC3-DMA, reference compound] | 339 | 325 | 19976 | 1429 | 4962.5 |  |  | 1.57e+06 pg/mL | 1.83e+06 pg/mL | 19.85 pg/mL | 117.94 pg/mL | 1.83e+06 pg/mL | 1 | 810000 pg/mL | 318 mOsm/kg | −3.64 mV | 7.52
